We go through nine molecules from patent US9498478B2, “Spiro aminic compounds with NK1 antagonist activity” (Rottapharm Biotech Srl, priority 2011, dated 2016).

For the experiment, the target named is T1, human NK1 receptor (Homo sapiens, UniProt P25103).
T1 construct: human NK1 receptor endogenously expressed in U373 cells; endogenous in cells; host or cells: U373 (human U373MG astrocytoma) cells
Nature of the experiment: Antagonist activity at the human NK1 receptor endogenously expressed in U373 cells, agonist-induced cytosolic Ca2+ mobilization (fluorimetric). The format is cell-based. The settings on record: for inhibition at 10 µM: U373 MG, percent inhibition of control response to 3 nM [Sar9,Met(O2)11]-SP at compound concentration 10 μM, read-out: NK1 % inh @10 μM; for Kb: co-logarithm of apparent dissociation constant by modified Cheng Prusoff equation, agonist 3 nM [Sar9,Met(O2)11]-SP, read-out: pKb NK1 (converted). As for the experimental part: Evaluation of the antagonist activity of compounds at the human NK1 receptor endogenously expressed in U373 cells was determined by measuring their effect on agonist-induced cytosolic Ca2+ ion mobilization using a fluorimetric detection method.
The cells were suspended in DMEM buffer (Invitrogen), then distributed in microplates at a density of 1.10^4 cells/well. The fluorescent probe (Fluo4 NW, Invitrogen) mixed with probenicid in HBSS buffer (Invitrogen) complemented with 20 mM Hepes (Invitrogen) (pH 7.4) was then added into each well and equilibrated with the cells for 60 min at 37° C. then 15 min at 22° C. Thereafter, the assay plates were positioned in a microplate reader (CellLux, PerkinElmer) which was used for the addition of the test compound, reference antagonist or HBSS buffer then 5 min later 3 nM [Sar9,Met(O2)11]-SP or HBSS buffer (basal control), and the measurements of changes in fluorescence intensity which varies proportionally to the free cytosolic Ca2+ ion concentration.
The compounds, dissolved in DMSO and diluted in the medium, have been analysed in the 1 nM-1 μM concentration range (every concentration in duplicate). The antagonistic activity vs receptor NK1 of invention compounds has been expressed as pKb (co-logarithm of the apparent dissociation constant calculated by using the modified Cheng Prusoff equation) or alternatively as a percent of inhibition of the control response to 3 nM [Sar^9,Met(O2)^11]-SP at a compound concentration of 10 μM.
The standard reference antagonist was L 733,060, which was tested in each experiment at several concentrations to generate a concentration-response curve from which its IC50 value is calculated. • Bibliographic reference: EISTETTER, H. R., MILLS, A., BREWSTER, R., ALOUANI, S., RAMBOSSON, C. and KAWASHIMA, E. (1992), Functional characterization of neurokinin-1 receptor on human U373MG astrocytoma cells, Glia, 6: 89.
Background: Calcium assays in cells follow changes in intracellular calcium, usually with a dye or a luminescent sensor.

The structures appear in SMILES notation.

T1 sequence (P25103 whole entry): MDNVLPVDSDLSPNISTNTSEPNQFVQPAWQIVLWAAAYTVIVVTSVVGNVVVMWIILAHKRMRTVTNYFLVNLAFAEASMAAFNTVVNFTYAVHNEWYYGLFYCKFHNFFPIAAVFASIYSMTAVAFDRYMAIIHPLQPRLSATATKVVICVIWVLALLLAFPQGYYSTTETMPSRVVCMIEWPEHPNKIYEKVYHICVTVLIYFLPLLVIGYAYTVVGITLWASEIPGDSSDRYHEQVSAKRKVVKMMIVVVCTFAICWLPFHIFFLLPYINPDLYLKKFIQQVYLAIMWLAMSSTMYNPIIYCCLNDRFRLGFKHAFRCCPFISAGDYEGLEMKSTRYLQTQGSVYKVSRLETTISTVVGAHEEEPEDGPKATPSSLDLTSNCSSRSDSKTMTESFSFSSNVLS

Take `O=C(c1cc(F)ccc1-c1ccccn1)N1CCC2(CC2)C[C@H]1CNc1ccc(Cl)cn1` [Compound 3, (S)-(5-(((5-chloropyridin-2-yl)amino)methyl)-6-azaspiro[2.5]octan-6-yl)(5-fluoro-2-(pyridin-2-yl)phenyl)methanone]: the inhibition at 10 µM was 65%.
With `Cc1ccc(-n2nccn2)c(C(=O)N2CCC3(CC3)C[C@H]2CNc2ccc(Cl)cn2)c1` [Compound 6, (S)(5-((5-chloropyridin-2-ylamino)methyl)-6-azaspiro[2.5]octan-6-yl)(5-methyl-2-(2H-1,2,3-triazol-2-yl)phenyl)methanone], the inhibition at 10 µM amounted to 61%.
`O=C(c1cc(F)ccc1-c1ncccn1)N1CCC2(CC2)C[C@H]1CNc1ccc(Cl)cn1` [Compound 9, (S)-(5-(((5-chloropyridin-2-yl)amino)methyl)-6-azaspiro[2.5]octan-6-yl)(5-fluoro-2-(pyrimidin-2-yl)phenyl)methanone]: the Kb is 2.51 nM.
As for `Cc1ccc(-c2ncccn2)c(C(=O)N2CCC3(CC3)C[C@H]2CNc2ccc(C(F)(F)F)cn2)c1` [Compound 7, (S)-(5-methyl-2-(pyrimidin-2-yl)phenyl)(5-(((5-(trifluoromethyl)pyridin-2-yl)amino)methyl)-6-azaspiro[2.5]octan-6-yl)methanone], the inhibition at 10 µM is 87%.
For `Cc1ccc(-c2ncccn2)c(C(=O)N2CCC3(CC3)C[C@H]2CNc2ccc(Cl)cn2)c1` [Compound 8, (S)-(5-(((5-chloropyridin-2-yl)amino)methyl)-6-azaspiro[2.5]octan-6-yl)(5-methyl-2-(pyrimidin-2-yl)phenyl)methanone], the Kb was 5.01 nM.
Consider `O=C(c1cc(Cl)ccc1-c1ncccn1)N1CCC2(CC2)C[C@H]1CNc1ccc(Cl)cn1` [Compound 1, (S)-(5-chloro-2-(pyrimidin-2-yl)phenyl)(5-(((5-chloropyridin-2-yl)amino)methyl)-6-azaspiro[2.5]octan-6-yl)methanone], for which the Kb is 2.51 nM.
For `Cc1ccc(-c2ccccn2)c(C(=O)N2CCC3(CC3)C[C@H]2CNc2ccc(Cl)cn2)c1` [Compound 2, (S)-(5-(((5-chloropyridin-2-yl)amino)methyl)-6-azaspiro[2.5]octan-6-yl)(5-methyl-2-(pyridin-2-yl)phenyl)methanone], the inhibition at 10 µM was found to be 87%.
Consider `Cc1ccc(-n2nccn2)c(C(=O)N2CCC3(CC3)C[C@H]2CNc2ccc(C(F)(F)F)cn2)c1` [Compound 5, (S)-(5-methyl-2-(2H-1,2,3-triazol-2-yl)phenyl)(5-(((5-(trifluoromethyl)pyridin-2-yl)amino)methyl)-6-azaspiro[2.5]octan-6-yl)methanone], for which the inhibition at 10 µM came to 67%.
Turning to `O=C(c1cc(F)ccc1-n1nccn1)N1CCC2(CC2)C[C@H]1CNc1ccc(Cl)cn1` [Compound 4, (S)-(5-(((5-chloropyridin-2-yl)amino)methyl)-6-azaspiro[2.5]octan-6-yl)(5-fluoro-2-(2H-1,2,3-triazol-2-yl)phenyl)methanone], the inhibition at 10 µM was found to be 61%.
